The text below walks through data of US12146004B2, “Polymyxin compounds and uses thereof” (priority 2014, dated 2024).

Common to all, as to assay type: cell-based
The test system of one test is Pseudomonas aeruginosa. The gist of the method: (§1)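 Susceptibility testing covered up to nine strains of each Gram-negative pathogen, among them resistant strains and strains with elevated MICs to Polymyxin. Values are MICs in μg/mL.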
A further test has as its system Acinetobacter baumannii. The gist of the method:
as §1

In a further test the test system is Escherichia coli. The gist of the method:
as §1

The subject of another test is Klebsiella pneumoniae. The gist of the method: as §1
A further test deals with HK-2 cells. The text has this:
Values are reported relative to Polymyxin B.

≈ marks a conversion by molar mass, not a printed value. Read-outs that look alike come from different tables or passages of the source. Bridge positions count the residues as written; N and C are the ends. Square brackets hold non-standard residues; d marks the D form. Peptide text beside a SMILES is read from it. * marks the point of attachment. ξ: configuration not given here. X13 = NCC[C@H](OCc1ccc(Cl)cc1)C(=O)*; dCha = N[C@H](CC1CCCCC1)C(=O)O; Thr(3ξ) = CC(O)[C@H](N)C(=O)O; X1 = CC(C)CN1CCNC[C@H]1C(=O)*; X7 = NCC(CC(=O)*)c1ccccc1; Dab = NCC[C@H](N)C(=O)O; Dap = NC[C@H](N)C(=O)O

Turning to `CC(C)C[C@@H]1NC(=O)[C@@H](CC2CCCCC2)NC(=O)[C@H](CCN)NC(=O)[C@@H](NC(=O)[C@H](CN)NC(=O)[C@@H](NC(=O)CC(CN)c2ccccc2)C(C)O)CCNC(=O)[C@H]([C@@H](C)O)NC(=O)[C@H](CCN)NC(=O)[C@H](CCN)NC1=O` (stereo partly drawn) [Example 39, 4-amino-3-phenylbutanoyl L-Thr-L-Dap-polymyxin [D-cyclohexylalanine]-6 heptapeptide.] (X7-[Thr(3ξ)][Dap][Dab][Dab][dCha]L[Dab][Dab]T; lactam 3-C), in the test on Pseudomonas aeruginosa (strain 068), the “MIC P. aeruginosa 068” value was 4 µg/mL (≈ 3.58 µM). Further, the “MIC P. aeruginosa 070” value in the test with Pseudomonas aeruginosa (strain 070) was 4 µg/mL (≈ 3.58 µM). Moreover, the “MIC P. aeruginosa ATCC 27853” value in the test on Pseudomonas aeruginosa (strain ATCC 27853) amounted to 0.5 µg/mL (≈ 0.448 µM). Also, in the test with Pseudomonas aeruginosa (strain CCUG 59347), the “MIC P. aeruginosa CCUG 59347” value came out at 0.5 µg/mL (≈ 0.448 µM). Further, the “MIC A. baumanii 053” value in the test with Acinetobacter baumannii (strain 053) was determined as 32 µg/mL (≈ 28.7 µM). The “MIC A. baumanii 056” value against Acinetobacter baumannii (strain 056) came out at 64 µg/mL (≈ 57.3 µM). Also, in the test on Acinetobacter baumannii (strain ATCC BAA-747), the “MIC A. baumanii ATCC BAA-747” value was 0.06 µg/mL (≈ 0.0537 µM). In addition, in the test with Acinetobacter baumannii (strain NCTC 13424), the “MIC A. baumanii NCTC 13424” value is 0.03 µg/mL (≈ 0.0269 µM). The “MIC E. coli 058” value in the test with Escherichia coli (strain 058) worked out at 4 µg/mL (≈ 3.58 µM). Also, the “MIC E. coli 061” value in the test on Escherichia coli (strain 061) came out at 32 µg/mL (≈ 28.7 µM). Besides, the “MIC E. coli ATCC 25922” value against Escherichia coli (strain ATCC 25922) stood at 0.125 µg/mL (≈ 0.112 µM). Also, the “MIC E. coli NCTC 9001” value in the test with Escherichia coli (strain NCTC 9001) came out at 0.06 µg/mL (≈ 0.0537 µM). In the test on Klebsiella pneumoniae (strain 063), the “MIC K. pneumoniae 063” value worked out at 64 µg/mL (≈ 57.3 µM). For the same molecule, the “MIC K. pneumoniae 065” value in the test on Klebsiella pneumoniae (strain 065) was determined as 4 µg/mL (≈ 3.58 µM). The “MIC K. pneumoniae ATCC 13882” value in the test with Klebsiella pneumoniae (strain ATCC 13882) came to 0.125 µg/mL (≈ 0.112 µM). The “HK-2 IC50” value in the test with HK-2 cells (HK-2 cells) amounted to 337 µg/mL.
Consider `CC(C)C[C@@H]1NC(=O)[C@@H](CC2CCCCC2)NC(=O)[C@H](CCN)NC(=O)[C@@H](NC(=O)[C@H](CN)NC(=O)[C@@H](NC(=O)[C@H](CCN)OCc2ccc(Cl)cc2)[C@@H](C)O)CCNC(=O)[C@H]([C@@H](C)O)NC(=O)[C@H](CCN)NC(=O)[C@H](CCN)NC1=O` [Example 74, (S)-4-amino-2-((4-chlorobenzyl)oxy) butanoyl L-Thr-L-Dap-polymyxin [D-cyclohexylalanine]-6 heptapeptide.] (X13-T[Dap][Dab][Dab][dCha]L[Dab][Dab]T; lactam 3-C), for which, in the test on Pseudomonas aeruginosa, the “MIC P. aeruginosa 068” value came to 4 µg/mL (≈ 3.39 µM), the “MIC P. aeruginosa 070” value stood at 4 µg/mL (≈ 3.39 µM), the “MIC P. aeruginosa ATCC 27853” value turned out to be 0.25 µg/mL (≈ 0.212 µM) and the “MIC P. aeruginosa CCUG 59347” value amounted to 0.25 µg/mL (≈ 0.212 µM). Further, in the test with Acinetobacter baumannii, the “MIC A. baumanii 053” value was determined as 32 µg/mL (≈ 27.1 µM), the “MIC A. baumanii 056” value is 32 µg/mL (≈ 27.1 µM), the “MIC A. baumanii ATCC BAA-747” value stood at 0.125 µg/mL (≈ 0.106 µM) and the “MIC A. baumanii NCTC 13424” value was 0.125 µg/mL (≈ 0.106 µM). Moreover, in the test with Escherichia coli, the “MIC E. coli 058” value was 2 µg/mL (≈ 1.69 µM), the “MIC E. coli 061” value worked out at 16 µg/mL (≈ 13.5 µM) and the “MIC E. coli ATCC 25922” value stood at 0.125 µg/mL (≈ 0.106 µM). In addition, in the test on Klebsiella pneumoniae, the “MIC K. pneumoniae 063” value was 16 µg/mL (≈ 13.5 µM), the “MIC K. pneumoniae 065” value turned out to be 2 µg/mL (≈ 1.69 µM) and the “MIC K. pneumoniae ATCC 13882” value worked out at 0.25 µg/mL (≈ 0.212 µM). The “HK-2 IC50” value in the test with HK-2 cells turned out to be 52 µg/mL.
For `CC(C)C[C@@H]1NC(=O)[C@@H](Cc2ccccc2)NC(=O)[C@H](CCN)NC(=O)[C@@H](NC(=O)[C@H](CN)NC(=O)[C@@H](NC(=O)[C@@H]2CNCCN2CC(C)C)C(C)O)CCNC(=O)[C@H]([C@@H](C)O)NC(=O)[C@H](CCN)NC(=O)[C@H](CCN)NC1=O` (stereo partly drawn) [Example C2, (S)-1-isobutyl piperazine-2-carbonyl-L-Thr-L-Dap-polymyxin B heptapeptide, reference compound] (X1-[Thr(3ξ)][Dap][Dab][Dab][dF]L[Dab][Dab]T; lactam 3-C), in the test with Pseudomonas aeruginosa, the “MIC P. aeruginosa 068” value worked out at 32 µg/mL (≈ 28.6 µM) and the “MIC P. aeruginosa ATCC 27853” value stood at 0.5 µg/mL (≈ 0.447 µM). Further, in the test on Acinetobacter baumannii, the “MIC A. baumanii 053” value was greater than 256 µg/mL, the “MIC A. baumanii 056” value was found to be 256 µg/mL (≈ 229 µM) and the “MIC A. baumanii ATCC BAA-747” value stood at 0.25 µg/mL (≈ 0.224 µM). Besides, in the test on Escherichia coli, the “MIC E. coli 058” value turned out to be 8 µg/mL (≈ 7.16 µM), the “MIC E. coli 059” value was determined as 16 µg/mL (≈ 14.3 µM), the “MIC E. coli 060” value is 8 µg/mL (≈ 7.16 µM) and the “MIC E. coli 061” value was determined as 32 µg/mL (≈ 28.6 µM). Besides, the “MIC E. coli ATCC 25922” value with Escherichia coli amounted to 0.25 µg/mL (≈ 0.224 µM). Besides, in the test with Klebsiella pneumoniae, the “MIC K. pneumoniae 063” value came to 128 µg/mL (≈ 115 µM), the “MIC K. pneumoniae 064” value was found to be 32 µg/mL (≈ 28.6 µM), the “MIC K. pneumoniae 065” value came out at 16 µg/mL (≈ 14.3 µM) and the “MIC K. pneumoniae 066” value was determined as 32 µg/mL (≈ 28.6 µM). Besides, in the test with Klebsiella pneumoniae, the “MIC K. pneumoniae 067” value was greater than 256 µg/mL and the “MIC K. pneumoniae ATCC 4352” value amounted to 0.125 µg/mL (≈ 0.112 µM). Also, in the test with HK-2 cells, the “HK-2 IC50” value was found to be 316 µg/mL.
